{
  "source": "patent US7045545B1",
  "about": "“Aminoalkylbenzofurans as serotonin (5-HT(2c)) agonists” (Eli Lilly and Company, priority 1999, dated 2006)",
  "data": [
    {"values": [
      {"smiles": "CC(N)Cc1c(F)ccc2ccoc12.O=C(O)C(=O)O", "note": "(centres unmarked)", "melting point": "200 to 202 °C"},
      {"smiles": "C[C@H](N)Cc1cc(F)cc2cc(Br)oc12.Cl", "melting point": "202 to 205 °C"},
      {"smiles": "CC(N)Cc1cc([N+](=O)[O-])cc2ccoc12.Cl", "note": "(centres unmarked)", "melting point": "216 to 217 °C (dec.)"},
      {"smiles": "CC(N)Cc1ccc(F)c2ccoc12.O=C(O)C(=O)O", "note": "(centres unmarked)", "melting point": "172 to 174 °C"},
      {"smiles": "Cc1coc2c(CC(C)N)cc(F)cc12.O=C(O)C(=O)O", "note": "(centres unmarked)", "melting point": "201 to 202 °C"}
    ]}
  ]
}
